# Where “and” joins values, the source holds several entries; their conditions need not be identical. Equal entries are not always repeated.
# What was measured:
# [1] = system: STZ-induced diabetic mice; experiment: Fasting blood glucose of STZ-induced diabetic mice; format: in vivo; settings: 300 mg/kg p.o. two times a day, n = 8
# Procedure: The mice were given 5% glucose solution orally in order to stave off the hypoglycemia during the first day after the injection of STZ [24]. In testing the FBG of the mice, a standard protocol developed by the American National Institute of Health was carried out. […] The FBG was measured using the Accu-Check Active Blood Glucose Meter (Roche Diagnostics, Mannheim, Germany). […] Sample suspended in distilled water containing 0.3% CMC-Na was administered p.o. two times a day for 2 weeks. FBG of the diabetic mice was determined on the day 7 and 14 as described before. On the day 14, the mice were sacrificed under diethyl ether anesthesia after the FBG determination. Blood was collected from the ophthalmic vein and allowed to clot at room temperature for 30 min. The serum was separate by centrifuging at 4000 rpm for 10 min with a refrigerated centrifuge. Liver and kidney were excised. Samples were stored at −20°C until used.
# [2] = system: STZ-induced diabetic mice; experiment: Glycosylated serum protein (GSP) of STZ-induced diabetic mice, NBT colorimetric method; format: in vivo; settings: 300 mg/kg p.o. two times a day, n = 8
# Procedure: (§1) Total 32 hyperglycemic mice were divided into four groups according to their FBG (8 mice per group): control (distilled water), MFE 100 (100 mg/kg BW), MFE 200 (200 mg/kg BW), and metformin (300 mg/kg BW). Sample suspended in distilled water containing 0.3% CMC-Na was administered p.o. two times a day for 2 weeks. FBG of the diabetic mice was determined on the day 7 and 14 as described before. On the day 14, the mice were sacrificed under diethyl ether anesthesia after the FBG determination. Blood was collected from the ophthalmic vein and allowed to clot at room temperature for 30 min. The serum was separate by centrifuging at 4000 rpm for 10 min with a refrigerated centrifuge. Liver and kidney were excised. Samples were stored at −20°C until used.
# GSP level was measured according to the nitroblue tetrazolium (NBT) colorimetric method using commercial kits purchased from Nanjing Jiancheng Bioengineering Institute (Nanjing, China). This method based on the ability of the ketoamine group of glycated proteins to reduce tetrazolium salt under alkaline conditions. Fructosamine was used as standard.
# [3] = system: STZ-induced diabetic mice; experiment: SOD activity in serum, kidney and liver of STZ-induced diabetic mice; format: in vivo; settings: 300 mg/kg, 2 weeks
# Procedure: as §1
# (§2) 10% solution of tissue homogenate was prepared as follows. Pieces of liver or kidney were homogenized in 9 volumes (w/v) ice-cold saline and centrifuged at 4000 rpm for 8 min. The supernatants were separated and stored at 4°C for analysis. Protein content of tissue homogenate was determined according to the Bradford method. Bovine serum albumin was used as standard. The superoxide dismutase (SOD), catalase (CAT) and glutathione peroxidase (GSH-Px) activities in liver and kidney tissue, the SOD and CAT activities in serum were determined using the respective commercial kits obtained from Nanjing Jiancheng Bioengineering Institute (Nanjing, China). SOD activity was determined by the nitrite method. SOD activity was expressed as units/mg protein or units/mL serum. The activity of CAT was measured using colorimetric method based on the decomposition of hydrogen peroxide (H2O2) by CAT. The enzyme catalysis was stopped by adding the solution of ammonium molybdate which can react with the rest H2O2 and give a yellow product. The product can be measured at 405 nm by its absorbance. The CAT activities of tissue or serum were presented as units/mg protein or units/mL serum respectively. GSH-Px activity was also measured according to a colorimetric method developed by Sedlak. […]
# [4] = system: STZ-induced diabetic mice; experiment: CAT activity in serum, kidney and liver of STZ-induced diabetic mice; format: in vivo; settings: 300 mg/kg, 2 weeks
# Procedure: as §1, §2
# [5] = system: STZ-induced diabetic mice; experiment: GSH-Px activity in kidney and liver of STZ-induced diabetic mice; format: in vivo; settings: 300 mg/kg, 2 weeks
# Procedure: as §1, with “Samples were stored at −20°C until used.” left out
# 10% solution of tissue homogenate was prepared as follows. […] Protein content of tissue homogenate was determined according to the Bradford method. […] The superoxide dismutase (SOD), catalase (CAT) and glutathione peroxidase (GSH-Px) activities in liver and kidney tissue, the SOD and CAT activities in serum were determined using the respective commercial kits obtained from Nanjing Jiancheng Bioengineering Institute (Nanjing, China). SOD activity was determined by the nitrite method. SOD activity was expressed as units/mg protein or units/mL serum. The activity of CAT was measured using colorimetric method based on the decomposition of hydrogen peroxide (H2O2) by CAT. […]
# [6] = DPPH radical-scavenging assay of the extracts; settings: DPPH used was 2,2-Di(4-tert-octylphenyl)-1-picrylhydrazyl, mean ± SD, n = 3
# Procedure: (§3) The DPPH radical-scavenging assay was performed according to a previously described method. All tests were performed in triplicate. Ascorbic acid and gallic acid were used as positive controls.
# [7] = DPPH radical-scavenging assay of the isolated compounds; settings: mean ± SD, n = 3
# Procedure: as §3
# [8] = Superoxide anion radical-scavenging assay (NADH/PMS system); settings: mean ± SD, n = 3
# Description: Superoxide radical were generated by the NADH/PMS system according to a reported protocol. Gallic acid was used as positive control.
Compound,FBG day 0 ([1]; day 0) [mmol/L],FBG day 7 ([1]; day 7) [c mmol/L],FBG day 14 ([1]; day 14) [c mmol/L],GSP day 14 [2],Kidney SOD ([3]; kidney) [b units/mg protein],Liver SOD ([3]; liver) [units/mg protein],Serum SOD ([3]; serum) [b units/mL serum],Kidney CAT ([4]; kidney) [b units/mg protein],Liver CAT ([4]; liver) [units/mg protein],Serum CAT ([4]; serum) [c units/mL serum],Kidney GSH-Px ([5]; kidney),Liver GSH-Px ([5]; liver),EC50 DPPH [6] [µg/mL],EC50 [7] [µM],EC50 Superoxide anion ([8]; extracts) [µg/mL],EC50 ([8]; isolated compounds) [µM]
CN(C)C(=N)N=C(N)N [Metformin],25.66 ± 5.95,15.44±4.57,17.38±5.31,6.06±0.47 mmol/L and 6.06±0.47b mmol/L,246.56±24.80,145.03±13.79,251.29±28.78,21.85±3.90,27.07±2.74,50.53±17.87,240.36±40.31,275.78±21.02,–,–,–,–
"O=C(O)c1cc(O)c(O)c(O)c1 [Gallic acid, reference compound]",–,–,–,–,–,–,–,–,–,–,–,–,4.95 ± 0.24,5.18 ± 0.34,5.21 ± 0.27,10.1 ± 0.39
